Results published in PubChem BioAssay (NCI).
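1) Cells in 96-well plates. 2) Compound, 48 h, 5 concentrations. 3) Linear interpolation between surrounding doses. 4) Unreached endpoint = highest concentration. GI50 = concentration required for 50% inhibition of growth. At the TGI there is no net growth.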

Key:
Test in all cases: NCI anticancer screen, dose series, 48 h
[1] = tested on: MDA-MB-468 breast
[2] = tested on: 786-0 renal
[3] = tested on: A498 renal
[4] = tested on: A549 NSCLC
[5] = tested on: ACHN renal
[6] = tested on: BT-549 breast
[7] = tested on: CAKI-1 renal
[8] = tested on: CCRF-CEM leukemia
[9] = tested on: COLO 205 colon
[10] = tested on: DU-145 prostate
[11] = tested on: EKVX NSCLC
[12] = tested on: HCC-2998 colon
[13] = tested on: HCT-116 colon
[14] = tested on: HCT-15 colon
[15] = tested on: HL-60(TB) leukemia
[16] = tested on: HOP-62 NSCLC
[17] = tested on: HOP-92 NSCLC
[18] = tested on: HS 578T breast
[19] = tested on: HT29 colon
[20] = tested on: IGROV1 ovarian
[21] = tested on: K-562 leukemia
[22] = tested on: KM12 colon
[23] = tested on: LOX IMVI melanoma
[24] = tested on: M14 melanoma
[25] = tested on: MALME-3M melanoma
[26] = tested on: MCF7 breast
[27] = tested on: MDA-MB-231 breast
[28] = tested on: MDA-MB-435
[29] = tested on: MOLT-4 leukemia
[30] = tested on: NCI-H226 lung
[31] = tested on: NCI-H23 lung
[32] = tested on: NCI-H460 lung
[33] = tested on: NCI-H522 lung
[34] = tested on: OVCAR-3 ovarian
[35] = tested on: OVCAR-4 ovarian
[36] = tested on: OVCAR-5 ovarian
[37] = tested on: OVCAR-8 ovarian
[38] = tested on: PC-3 prostate
[39] = tested on: RPMI-8226 leukemia
[40] = tested on: RXF 393 renal
[41] = tested on: SF-268 CNS
[42] = tested on: SF-295 CNS
[43] = tested on: SF-539 CNS
[44] = tested on: SK-MEL-2 melanoma
[45] = tested on: SK-MEL-28 melanoma
[46] = tested on: SK-MEL-5 melanoma
[47] = tested on: SK-OV-3 ovarian
[48] = tested on: SN12C renal
[49] = tested on: SNB-19 CNS
[50] = tested on: SNB-75 CNS
[51] = tested on: SR leukemia
[52] = tested on: SW-620 colon
[53] = tested on: T-47D breast
[54] = tested on: TK-10 renal
[55] = tested on: U251 CNS
[56] = tested on: UACC-257 melanoma
[57] = tested on: UACC-62 melanoma
[58] = tested on: UO-31 renal

Cc1ccc(-c2cc3c(NC(=O)C4CC4)ncnc3o2)cc1
GI50 [1]: > 25000 nM
TGI [1]: > 25 µM

C[C@H](O)CNc1cc(-c2[nH]c3cccnc3c2-c2ccc(F)cc2)ccn1
GI50 [1]: 7540 nM
TGI [1]: > 25 µM

CCOC(=O)c1ccc2[nH]c(O)c(C(=Nc3ccc(N(C)C(=O)CN4CCN(C)CC4)cc3)c3ccccc3)c2c1
GI50 [1]: 827 nM
TGI [1]: 2.29 µM

Cc1cc(C(=O)NC(C)(C)C)cc(C#Cc2ccc3c4c(oc3c2)C(C)(C)c2cc(NS(C)(=O)=O)ccc2C4=O)n1
GI50 [1]: 3180 nM
TGI [1]: > 100 µM

CCN(CC)CCNC(=O)c1cn2ncnc(Oc3ccc(NC(=O)Nc4ccc(Cl)c(C(F)(F)F)c4)cc3)c2c1C
GI50 [1]: 1670 nM
TGI [1]: 3.29 µM

O=C(Nc1ccc(Cl)cc1)Nc1ccc(Oc2nncc3ccccc23)cc1
GI50 [1]: 752 nM
TGI [1]: 2.52 µM

Oc1ccccc1N=Cc1c(O)ccc2ccccc12
GI50 [1]: 7090 nM
TGI [1]: 29.5 µM

O=C(O[C@H]1CN[C@H](C#Cc2cc3ncnc(Nc4ccc5c(cnn5Cc5ccccc5)c4)c3s2)C1)N1CCOCC1
GI50 [1]: 209 nM
TGI [1]: 2.58 µM

Cc1cc(C)c(C#N)c(SCC(=O)c2sc3c(C#N)c(C)cc(C)[n+]3c2[O-])n1
GI50 [1]: 266 nM

COc1ccc(C(=O)n2nc(/C=C/c3ccc(O)c(OC)c3)cc2/C=C/c2ccc(O)c(OC)c2)cc1
GI50 [1]: 370 nM
TGI [1]: 2 µM

CCN(CC)CCOc1nc2c3ccc(Cl)cc3nn2c2ccccc12
GI50 [1]: 1510 nM
TGI [1]: 3.57 µM

Cc1ccc(NCCN2CCCCC2)c2c(=O)c3ccccc3sc12
GI50 [1]: 2380 nM
TGI [1]: 5.19 µM

CN(C)c1ccc(-c2c(NC(C)(C)C)nc3c(OCCc4ccccc4)cccn23)cc1
GI50 [1]: 2290 nM
TGI [1]: 6.28 µM

CCc1c2c(nc3ccc(OC(=O)NCc4ccc(B5OC(C)(C)C(C)(C)O5)cc4)cc13)-c1cc3c(c(=O)n1C2)COC(=O)[C@]3(O)CC
GI50 [1]: < 12.6 nM
TGI [1]: 0.0894 µM

O=C1c2ccccc2C(=O)c2c1ccc(C(Br)Br)c2Cl
GI50 [1]: 2000 nM
TGI [1]: 4.54 µM

CCOC(=O)C1=C(N)CCC1C (stereo unspecified)
GI50 [1]: > 100000 nM
TGI [1]: > 100 µM

O=C1/C(=C/c2ccc(O)c(O)c2)COc2ccc(-c3ccccc3)cc21
GI50 [1]: 731 nM
TGI [1]: 2.64 µM

CN1CCN(c2ccc(N3Cc4ccccc4OC4=C3C(=O)c3c(O)ccc(O)c3C4=O)cn2)CC1
GI50 [1]: 229 nM
TGI [1]: 0.578 µM

Cc1nc(Nc2nc(C)c3ccc(OCCN4CCOCC4)cc3n2)[nH]c(=O)c1C
GI50 [2]: 3.75 µM
TGI [2]: 18.2 µM
GI50 [3]: 2160 nM
TGI [3]: 6.52 µM
GI50 [4]: 3.37 µM
TGI [4]: 15.4 µM
GI50 [5]: 3.85 µM
TGI [5]: 19.4 µM
GI50 [6]: 3.55 µM
TGI [6]: 12.1 µM
GI50 [7]: 3.66 µM
TGI [7]: 24.2 µM
GI50 [8]: 3.26 µM
TGI [8]: 13.8 µM
GI50 [9]: 2250 nM
TGI [9]: 5.58 µM
GI50 [10]: 2940 nM
TGI [10]: 9.03 µM
GI50 [11]: 4.15 µM
TGI [11]: 26.7 µM
GI50 [12]: 3.1 µM
TGI [12]: 5.43 µM
GI50 [13]: 3.09 µM
TGI [13]: 12.3 µM
GI50 [14]: 3.15 µM
TGI [14]: 18.8 µM
GI50 [15]: 2270 nM
TGI [15]: 6.83 µM
GI50 [16]: 4.59 µM
TGI [16]: 20.4 µM
GI50 [17]: 2910 nM
TGI [17]: 9.9 µM
GI50 [18]: 3.79 µM
TGI [18]: 23.6 µM
GI50 [19]: 3.01 µM
TGI [19]: 9.94 µM
GI50 [20]: 3.1 µM
TGI [20]: 12.6 µM
GI50 [21]: 3.31 µM
TGI [21]: 27.4 µM
GI50 [22]: 3.14 µM
TGI [22]: 10.8 µM
GI50 [23]: 2390 nM
TGI [23]: 6.72 µM
GI50 [24]: 4.36 µM
TGI [24]: 17.4 µM
GI50 [25]: 2380 nM
TGI [25]: 9.06 µM
GI50 [26]: 4.15 µM
TGI [26]: > 100 µM
GI50 [27]: 2450 nM
TGI [27]: 6.05 µM
GI50 [28]: 4.28 µM
TGI [28]: 15.8 µM
GI50 [1]: 1720 nM
TGI [1]: 3.8 µM
GI50 [29]: 3.05 µM
TGI [29]: 22 µM
GI50 [30]: 2860 nM
TGI [30]: 11.1 µM
GI50 [31]: 2530 nM
TGI [31]: 5.91 µM
GI50 [32]: 2940 nM
TGI [32]: 9.12 µM
GI50 [33]: 2450 nM
TGI [33]: 8.57 µM
GI50 [34]: 3.12 µM
TGI [34]: 13.7 µM
GI50 [35]: 2540 nM
TGI [35]: 7.74 µM
GI50 [36]: 4.22 µM
TGI [36]: 27.5 µM
GI50 [37]: 4.04 µM
TGI [37]: 17.9 µM
GI50 [38]: 4.04 µM
TGI [38]: 27 µM
GI50 [39]: 2790 nM
TGI [39]: 8.33 µM
GI50 [40]: 1950 nM
TGI [40]: 4.47 µM
GI50 [41]: 3.58 µM
TGI [41]: 19 µM
GI50 [42]: 4.43 µM
TGI [42]: 57.9 µM
GI50 [43]: 2820 nM
TGI [43]: 8.86 µM
GI50 [44]: 2030 nM
TGI [44]: 5.13 µM
GI50 [45]: 3.64 µM
TGI [45]: 14.3 µM
GI50 [46]: 2290 nM
TGI [46]: 6.87 µM
GI50 [47]: 4.67 µM
TGI [47]: 24.8 µM
GI50 [48]: 3.46 µM
TGI [48]: 19.5 µM
GI50 [49]: 4.66 µM
TGI [49]: 24.6 µM
GI50 [50]: 1920 nM
TGI [50]: 8.83 µM
GI50 [51]: 3.03 µM
TGI [51]: 10.7 µM
GI50 [52]: 3.39 µM
TGI [52]: 20.7 µM
GI50 [53]: 4.36 µM
TGI [53]: 43.5 µM
GI50 [54]: 2990 nM
TGI [54]: 22.4 µM
GI50 [55]: 4.16 µM
TGI [55]: 51.4 µM
GI50 [56]: 4.03 µM
TGI [56]: 25.9 µM
GI50 [57]: 2560 nM
TGI [57]: 8.19 µM
GI50 [58]: 2950 nM
TGI [58]: 15.2 µM

O=C(COc1cccc(/C=C2/Oc3ccccc3C2=O)c1)Nc1nccs1
GI50 [1]: 2160 nM
TGI [1]: 9.07 µM

COc1cc(-c2cc(/C=C/C(=O)c3ccc(N)cc3)[nH]n2)cc(OC)c1OC
GI50 [1]: 1010 nM
TGI [1]: 2.91 µM

Cn1c2c(c3ccc(-c4ccn[nH]4)cc3c1=O)C(=O)c1ccccc1-2
GI50 [1]: 4900 nM
TGI [1]: > 100 µM

Clc1ccc(N2CCN(CCCN3CCN(c4cccc(Cl)c4)CC3)CC2)cc1
GI50 [1]: 1630 nM
TGI [1]: 10.8 µM

CC(C)CCC[C@@H](C)[C@H]1CCC2C3=CCn4c(=O)ccc(=O)n4C3CC[C@@]21C (stereo partly specified)
GI50 [1]: 887 nM
TGI [1]: 2.98 µM

CS(=O)(=O)Nc1ccc(Nc2c3ccccc3nc3cc(N)ccc23)cc1
GI50 [1]: 106 nM
TGI [1]: 0.973 µM

CN1C(=O)N(C)C2C1NN=c1s/c(=C\c3ccccc3F)c(=O)n12 (stereo unspecified)
GI50 [1]: 211 nM
TGI [1]: > 100 µM

CSCCC(NC(=O)CNC(=O)C(CC(=O)O)NC(=O)C(NC(=O)C(NC(=O)C(NC(=O)CNC(=O)C(CCC(N)=O)NC(=O)C(CCSC)NC(=O)C(CC(=O)O)NC(=O)C(C)NC(=O)C(C)NC(=O)C(NC(=O)C(CO)NC(=O)C(N)CC(C)C)C(C)O)C(C)C)C(C)C)C(C)O)C(=O)NC(C)C(=O)NC(CO)C(=O)NCC(=O)NC(CC(C)C)C(=O)NC(CC(=O)O)C(=O)NC(CCCCN)C(=O)NC(CC(=O)O)C(=O)NC(Cc1ccc(O)cc1)C(=O)NC(CC(C)C)C(=O)NC(CCCCN)C(=O)N1CCCC1C(=O)NC(CC(=O)O)C(=O)NC(CC(=O)O)C(=O)O (stereo unspecified)
GI50 [1]: > 82500 nM
TGI [1]: > 82.5 µM

COc1ccccc1/C=C/C=N/NC1=NC2C(S1)N(C)C(=O)N2C (stereo unspecified)
GI50 [1]: 2130 nM
TGI [1]: 7.46 µM

COC(=O)C1CCC(NC(=O)c2csc([C@@H](C[C@H](C(C)C)N(C)C(=O)[C@@H](NC(=O)[C@H]3CCCCN3C)C(C)C)OC(C)=O)n2)CC1 (stereo partly specified)
GI50 [1]: 2.45 nM
TGI [1]: 0.00683 µM
